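Protocol summary: plate cells (96-well), add compound at 5 concentrations, incubate 48 h, interpolate endpoints linearly. The concentration for 50% growth inhibition is given as GI50. At the TGI there is no net growth.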
Assays:
Assay in all cases: inhibition of tumour cell growth, NCI panel, 48 h
[1] = tested on: 786-0 renal
[2] = tested on: A498 renal
[3] = tested on: A549 NSCLC
[4] = tested on: ACHN renal
[5] = tested on: BT-549 breast
[6] = tested on: CAKI-1 renal
[7] = tested on: CCRF-CEM leukemia
[8] = tested on: COLO 205 colon
[9] = tested on: DU-145 prostate
[10] = tested on: EKVX NSCLC
[11] = tested on: HCC-2998 colon
[12] = tested on: HCT-15 colon
[13] = tested on: HL-60(TB) leukemia
[14] = tested on: HOP-62 NSCLC
[15] = tested on: HOP-92 NSCLC
[16] = tested on: HS 578T breast
[17] = tested on: HT29 colon
[18] = tested on: IGROV1 ovarian
[19] = tested on: K-562 leukemia
[20] = tested on: KM12 colon
[21] = tested on: LOX IMVI melanoma
[22] = tested on: M14 melanoma
[23] = tested on: MALME-3M melanoma
[24] = tested on: MCF7 breast
[25] = tested on: MDA-MB-231 breast
[26] = tested on: MDA-MB-435
[27] = tested on: MDA-MB-468 breast
[28] = tested on: MOLT-4 leukemia
[29] = tested on: NCI-H226 lung
[30] = tested on: NCI-H23 lung
[31] = tested on: NCI-H460 lung
[32] = tested on: NCI-H522 lung
[33] = tested on: OVCAR-3 ovarian
[34] = tested on: OVCAR-4 ovarian
[35] = tested on: OVCAR-5 ovarian
[36] = tested on: OVCAR-8 ovarian
[37] = tested on: PC-3 prostate
[38] = tested on: RPMI-8226 leukemia
[39] = tested on: RXF 393 renal
[40] = tested on: SF-268 CNS
[41] = tested on: SF-295 CNS
[42] = tested on: SF-539 CNS
[43] = tested on: SK-MEL-2 melanoma
[44] = tested on: SK-MEL-28 melanoma
[45] = tested on: SK-MEL-5 melanoma
[46] = tested on: SK-OV-3 ovarian
[47] = tested on: SN12C renal
[48] = tested on: SNB-19 CNS
[49] = tested on: SNB-75 CNS
[50] = tested on: SR leukemia
[51] = tested on: SW-620 colon
[52] = tested on: T-47D breast
[53] = tested on: TK-10 renal
[54] = tested on: U251 CNS
[55] = tested on: UACC-257 melanoma
[56] = tested on: UACC-62 melanoma
[57] = tested on: UO-31 renal

## O=C1Nc2cc(Cl)ccc2/C1=C/c1ccc(OCc2ccc(Br)cc2F)cc1
[1]
  GI50: 1.9 µM
  TGI: 3.5 µM
[2]
  GI50: 2.23 µM
  TGI: 4.59 µM
[3]
  GI50: 2.08 µM
  TGI: 4.35 µM
[4]
  GI50: 1.92 µM
  TGI: 3.83 µM
[5]
  GI50: 1.92 µM
  TGI: 4.26 µM
[6]
  GI50: 1.7 µM
  TGI: 3.46 µM
[7]
  GI50: 3.86 µM
  TGI: 14.6 µM
[8]
  GI50: 4.03 µM
  TGI: 17 µM
[9]
  GI50: 3.39 µM
  TGI: 10.1 µM
[10]
  GI50: 3.69 µM
  TGI: 17.1 µM
[11]
  GI50: 15.4 µM
  TGI: 37.7 µM
[12]
  GI50: 3.4 µM
  TGI: 13 µM
[13]
  GI50: 17.7 µM
  TGI: 53.6 µM
[14]
  GI50: 1.9 µM
  TGI: 4.21 µM
[15]
  GI50: 2.28 µM
  TGI: 6.17 µM
[16]
  GI50: 2.05 µM
  TGI: 6.6 µM
[17]
  GI50: 4.69 µM
  TGI: 19.5 µM
[18]
  GI50: 2.43 µM
  TGI: 6.3 µM
[19]
  GI50: 4.03 µM
  TGI: 17 µM
[20]
  GI50: 3.54 µM
  TGI: 11.5 µM
[21]
  GI50: 1.73 µM
  TGI: 3.61 µM
[22]
  GI50: 2.91 µM
  TGI: 9.02 µM
[23]
  GI50: 1.82 µM
  TGI: 3.83 µM
[24]
  GI50: 2.11 µM
  TGI: 14.2 µM
[25]
  GI50: 2.33 µM
  TGI: 5.92 µM
[26]
  GI50: 2.87 µM
  TGI: 8.54 µM
[27]
  GI50: 2.24 µM
  TGI: 4.65 µM
[28]
  GI50: 3.98 µM
  TGI: 14.4 µM
[29]
  GI50: 2.07 µM
  TGI: 5.53 µM
[30]
  GI50: 1.79 µM
  TGI: 4.08 µM
[31]
  GI50: 2.02 µM
  TGI: 3.74 µM
[32]
  GI50: 1.99 µM
  TGI: 4.89 µM
[33]
  GI50: 2.49 µM
  TGI: 5.08 µM
[34]
  GI50: 1.9 µM
  TGI: 3.98 µM
[35]
  GI50: 8.24 µM
  TGI: 34.3 µM
[36]
  GI50: 3.31 µM
  TGI: 10.4 µM
[37]
  GI50: 1.91 µM
  TGI: 4.46 µM
[38]
  GI50: 4.41 µM
  TGI: 18.1 µM
[39]
  GI50: 2.73 µM
  TGI: 9.28 µM
[40]
  GI50: 2.67 µM
  TGI: 6.35 µM
[41]
  GI50: 2.07 µM
  TGI: 4.36 µM
[42]
  GI50: 1.92 µM
  TGI: 3.59 µM
[43]
  GI50: 7.22 µM
  TGI: 21.7 µM
[44]
  GI50: 2.18 µM
  TGI: 4.92 µM
[45]
  GI50: 3.47 µM
  TGI: 12.3 µM
[46]
  GI50: 3.81 µM
  TGI: 13.5 µM
[47]
  GI50: 5.31 µM
  TGI: 19.6 µM
[48]
  GI50: 2.3 µM
  TGI: 5.72 µM
[49]
  GI50: 2.19 µM
  TGI: 7 µM
[50]
  GI50: 2.07 µM
  TGI: 4.45 µM
[51]
  GI50: 2.02 µM
  TGI: 4.18 µM
[52]
  GI50: 4.19 µM
  TGI: 18.3 µM
[53]
  GI50: 2.73 µM
  TGI: 7.15 µM
[54]
  GI50: 1.92 µM
  TGI: 3.62 µM
[55]
  GI50: 9.42 µM
  TGI: 26.3 µM
[56]
  GI50: 1.82 µM
  TGI: 3.8 µM
[57]
  GI50: 1.55 µM
  TGI: 4.65 µM

Source: PubChem BioAssay (NCI)
